Here are results for 47 compounds from US12251387B2, “Substituted quinoxalines and benzo[c][1,2,5]oxadiazoles as DNA-PK inhibitors” (Vertex Pharmaceuticals Incorporated, priority 2013, dated 2025).

For the experiment, the target named is DNA-PK (Homo sapiens, UniProt P78527). The experiment can be described thus: DNA-PK Inhibition Assay (standard radiometric kinase assay, 33P-ATP, peptide substrate). The experiment is classed as biochemical. The procedure: Compounds were screened for their ability to inhibit DNA-PK kinase using a standard radiometric assay. Briefly, in this kinase assay the transfer of the terminal ^33P-phosphate in ^33P-ATP to a peptide substrate is interrogated. The assay was carried out in 384-well plates to a final volume of 50 μL per well containing approximately 6 nM DNA-PK, 50 mM HEPES (pH 7.5), 10 mM MgCl2, 25 mM NaCl, 0.01% BSA, 1 mM DTT, 10 μg/mL sheared double-stranded DNA (obtained from Sigma), 0.8 mg/mL DNA-PK peptide (Glu-Pro-Pro-Leu-Ser-Gln-Glu-Ala-Phe-Ala-Asp-Leu-Trp-Lys-Lys-Lys, obtained from American Peptide), and 100 μM ATP. Accordingly, compounds of the invention were dissolved in DMSO to make 10 mM initial stock solutions. Serial dilutions in DMSO were then made to obtain the final solutions for the assay. A 0.75 μL aliquot of DMSO or inhibitor in DMSO was added to each well, followed by the addition of ATP substrate solution containing ^33P-ATP (obtained from Perkin Elmer). The reaction was started by the addition of DNA-PK, peptide and ds-DNA. After 45 min, the reaction was quenched with 25 μL of 5% phosphoric acid. The reaction mixture was transferred to MultiScreen HTS 384-well PH plates (obtained from Millipore), allowed to bind for one hour, and washed three times with 1% phosphoric acid. Following the addition of 50 μL of Ultima Gold™ high efficiency scintillant (obtained from Perkin Elmer), the samples were counted in a Packard TopCount NXT Microplate Scintillation and Luminescence Counter (Packard BioScience). The Ki values were calculated using Microsoft Excel Solver macros to fit the data to the kinetic model for competitive tight-binding inhibition.

[1] abbreviates: radiometric assay, approximately 6 nM DNA-PK, 100 μM ATP, 45 min, fit to competitive tight-binding inhibition, read-out: Ki for the inhibition of DNA-PK.

Where two headings read alike, the source gives them in different places.

Turning to `Cc1ncc(N[C@H]2CC[C@@H](Oc3cc(N4CCOCC4)cc4nccnc34)CC2)nc1C` [Compound 314], the Ki under setting [1] is less than 100 nM.

For `c1cc(N[C@H]2CC[C@@H](Oc3cc(N4CCOCC4)cc4nccnc34)CC2)nc(OCCN2CCCCC2)n1` [Compound 493], the Ki under setting [1] was less than 100 nM. Still for that read-out and setting: the result for `c1cnc(N[C@H]2C[C@@H](COc3cc(N4CCOCC4)cc4nccnc34)C2)nc1` [Compound 305] reads less than 100 nM. Regarding `CN1CCN(CCc2cnc(N[C@H]3CC[C@@H](Oc4cc(N5CCOCC5)cc5nccnc45)CC3)nc2)CC1` [Compound 430], under setting [1], the inhibitory constant (Ki) was less than 100 nM. On the same count and under the same terms, the result for `COc1cc(N[C@H]2CC[C@@H](Oc3cc(N4CCOCC4)cc4nccnc34)CC2)nc(N(C)C)n1` [Compound 553] reads less than 100 nM; that for `COCCOc1ccc(N[C@H]2CC[C@@H](Oc3cc(N4CCOCC4)cc4nccnc34)CC2)nc1` [Compound 625], less than 100 nM; that for `CC(C)(C)OC(=O)N1CCn2cnc(N[C@H]3CC[C@@H](Oc4cc(N5CCOCC5)cc5nccnc45)CC3)c2C1` [Compound 296], less than 100 nM. On to `CCOc1cccc(N[C@H]2CC[C@@H](Oc3cc(N4CCOCC4)cc4nccnc34)CC2)n1` [Compound 588], for which, under setting [1], the inhibitory constant (Ki) was less than 100 nM.

`Cc1ncc(C)c(N[C@H]2CC[C@@H](Oc3cc(N4CCOCC4)cc4nccnc34)CC2)n1` [Compound 490]: the Ki under setting [1] is less than 100 nM. Still for that read-out and setting: the result for `Cc1nccc(N[C@H]2CC[C@@H](Oc3cc(C4=COCC4)cc4nccnc34)CC2)n1` [Compound 288] reads less than 100 nM. `ClCCN1CCC(c2cnc(N[C@H]3CC[C@@H](Oc4cc(N5CCOCC5)cc5nccnc45)CC3)nc2)CC1` [Compound 522] came in with a Ki of less than 100 nM. On to `CCc1cc(N[C@H]2CC[C@@H](Oc3cc(N4CCOCC4)cc4nccnc34)CC2)nc(C)n1` [Compound 597], for which the Ki under setting [1] is less than 100 nM. On the same count and under the same terms, for `CC(C)Oc1cc(N[C@H]2CC[C@@H](Oc3cc(N4CCOCC4)cc4nccnc34)CC2)ccn1` [Compound 349] the value was less than 100 nM.

As to `CN(C)Cc1cc(N[C@H]2CC[C@@H](Oc3cc(N4CCOCC4)cc4nccnc34)CC2)ncn1` [Compound 390], the inhibition constant (Ki) under setting [1] is less than 100 nM. On the same count and under the same terms, for `c1cnc2c(O[C@H]3CC[C@@H](Nc4ncc(OCCCN5CCCCC5)cn4)CC3)cc(N3CCOCC3)cc2n1` [Compound 507] the value was less than 100 nM; for `CC(C)(C)OC(=O)c1cc(N[C@H]2CC[C@@H](Oc3cc(N4CCOCC4)cc4nccnc34)CC2)ccc1F` [Compound 421], less than 100 nM; for `c1cnc2c(O[C@H]3CC[C@@H](Nc4ncc(CN5CCCC5)cn4)CC3)cc(N3CCOCC3)cc2n1` [Compound 528], less than 100 nM. Turning to `Cc1nccc(N[C@H]2CC[C@@H](Oc3cc(C4=CCOCC4)cc4nccnc34)CC2)n1` [Compound 352], under setting [1], the inhibitory constant (Ki) is less than 100 nM.

As for `FC(F)Oc1ccc(N[C@H]2CC[C@@H](Oc3cc(N4CCOCC4)cc4nccnc34)CC2)nc1` [Compound 572], the inhibition constant Ki under setting [1] was less than 100 nM. Still for that read-out and setting: for `OC(c1ccc(N[C@H]2CC[C@@H](Oc3cc(N4CCOCC4)cc4nccnc34)CC2)nc1)C(F)(F)F` (some centres unmarked) [Compound 630] the value was less than 100 nM.

For `Cc1cncnc1N[C@H]1CC[C@@H](Oc2cc(N3CCOCC3)cc3nccnc23)CC1` [Compound 471], the Ki under setting [1] was less than 100 nM.

As for `Nc1nccc(N[C@H]2CC[C@@H](Oc3cc(N4CCOCC4)cc4nccnc34)CC2)n1` [Compound 397], the inhibition constant Ki under setting [1] is less than 100 nM.

With `CN(C)CCNC(=O)c1cnc(N[C@H]2CC[C@@H](Oc3cc(N4CCOCC4)cc4nccnc34)CC2)nc1` [Compound 328], the Ki under setting [1] is less than 100 nM. Regarding `O=C1NCCc2nc(N[C@H]3CC[C@@H](Oc4cc(N5CCOCC5)cc5nccnc45)CC3)sc21` [Compound 322], the inhibition constant (Ki) under setting [1] was less than 100 nM.

Consider `CCOc1nccc(N[C@H]2CC[C@@H](Oc3cc(N4CCOCC4)cc4nccnc34)CC2)n1` [Compound 279], for which, under setting [1], the Ki was less than 100 nM.

For the compound `Fc1cccc(N[C@H]2CC[C@@H](Oc3cc(N4CCOCC4)cc4nccnc34)CC2)n1` [Compound 614], the Ki under setting [1] is less than 100 nM.

`OCc1ccnc(N[C@H]2CC[C@@H](Oc3cc(N4CCOCC4)cc4nccnc34)CC2)n1` [Compound 457]: under setting [1], the Ki is less than 100 nM.

Consider `Cc1nc(N[C@H]2CC[C@@H](Oc3cc(N4CCOCC4)cc4nccnc34)CC2)ncc1F` [Compound 476], for which the Ki under setting [1] was less than 100 nM.

For the compound `Cc1cccnc1N[C@H]1CC[C@@H](Oc2cc(N3CCOCC3)cc3nccnc23)CC1` [Compound 586], under setting [1], the inhibition constant Ki was less than 100 nM. Same read-out and setting: for `Cc1ncc(F)c(N[C@H]2CC[C@@H](Oc3cc(N4CCOCC4)cc4nccnc34)CC2)n1` [Compound 494] the value was less than 100 nM; for `c1cnc(N[C@H]2CC[C@@H](Oc3cc(N4CC5CC(C4)O5)cc4nccnc34)CC2)nc1` [Compound 291, N-[4-[7-(6-oxa-3-azabicyclo[3.1.1]heptan-3-yl)quinoxalin-5-yl]oxycyclohexyl]pyrimidin-2-amine], less than 100 nM. Still for that read-out and setting: the result for `CCOc1cc(N[C@H]2CC[C@@H](Oc3cc(N4CCOCC4)cc4nccnc34)CC2)ccn1` [Compound 324] reads less than 100 nM; that for `Clc1nc(N[C@H]2CC[C@@H](Oc3cc(N4CCOCC4)cc4nccnc34)CC2)c2cn[nH]c2n1` [Compound 423], less than 100 nM.

Consider `c1cnc2c(O[C@H]3CC[C@@H](Nc4cc5[nH]ccc5cn4)CC3)cc(N3CCOCC3)cc2n1` [Compound 540], for which the Ki under setting [1] was less than 100 nM.

Consider `COCc1cc(N[C@H]2CC[C@@H](Oc3cc(N4CCOCC4)cc4nccnc34)CC2)nc(C)n1` [Compound 616], for which the inhibition constant (Ki) under setting [1] is less than 100 nM. On to `c1nc2c(c(N[C@H]3CC[C@@H](Oc4cc(N5CCOCC5)cc5nccnc45)CC3)n1)COC2` [Compound 475], for which the inhibitory constant (Ki) under setting [1] is less than 100 nM. Still for that read-out and setting: the result for `NC(=O)c1csc(N[C@H]2CC[C@@H](Oc3cc(N4CCOCC4)cc4nccnc34)CC2)n1` [Compound 331] reads less than 100 nM; that for `Cn1nnnc1-c1cnc(N[C@H]2CC[C@@H](Oc3cc(N4CCOCC4)cc4nccnc34)CC2)nc1` [Compound 459], less than 100 nM; that for `CC1(C)OCc2cc(N[C@H]3CC[C@@H](Oc4cc(N5CCOCC5)cc5nccnc45)CC3)cnc21` [Compound 571], less than 100 nM. With `CC(=O)N1CCC(NC(=O)N[C@H]2CC[C@@H](Oc3cc(N4CCOCC4)cc4nccnc34)CC2)CC1` [Compound 364], the Ki under setting [1] is less than 100 nM. Still for that read-out and setting: for `CN1CCc2nc(N[C@H]3CC[C@@H](Oc4cc(N5CCOCC5)cc5nccnc45)CC3)ncc2C1` [Compound 632] the value was less than 100 nM; for `c1cc(N[C@H]2CC[C@@H](Oc3cc(N4CCOCC4)cc4nccnc34)CC2)nc(CN2CCCCC2)n1` [Compound 496], less than 100 nM. `c1cnc2c(O[C@H]3CC[C@@H](Nc4ccnc5[nH]ccc45)CC3)cc(N3CCOCC3)cc2n1` [Compound 385]: the inhibition constant Ki under setting [1] is less than 100 nM. For the compound `c1cc(OCCN2CCOCC2)nc(N[C@H]2CC[C@@H](Oc3cc(N4CCOCC4)cc4nccnc34)CC2)n1` [Compound 560], the Ki under setting [1] was less than 100 nM. Turning to `CNc1ncc(OC)c(N[C@H]2CC[C@@H](Oc3cc(N4CCOCC4)cc4nccnc34)CC2)n1` [Compound 387], the inhibitory constant (Ki) under setting [1] is less than 100 nM. Still for that read-out and setting: the result for `Cc1ncc(N[C@H]2CC[C@@H](Oc3cc(N4CCOCC4)cc4nccnc34)CC2)cn1` [Compound 450] reads less than 100 nM; that for `c1nc(N[C@H]2CC[C@@H](Oc3cc(N4CCOCC4)cc4nccnc34)CC2)cc(-c2nnco2)n1` [Compound 566], less than 100 nM.

As a reminder, the Ki is the dissociation constant of the complex between target and ligand, obtained from inhibition or displacement.
